According to patent US6488924B1, “Vitamin K adduct, particularly suitable as vitamin supplement for feeds” (Luigi Stoppani S.p.A., priority 1999, dated 2002):

Key:
[1] = Solubility in water (saturated solution in demineralized water); type: physicochemical; conditions: ambient temperature, saturated solution in presence of a precipitate
[2] = pH of the medium; cited from earlier work
[3] = Stability under pressure (press on disk of finely ground powder); type: physicochemical; conditions: 30 minutes
[4] = Stability in extruded feed (fish farm feed); type: physicochemical; conditions: for menadione in feed, sampling point End point: after extrusion, drying and addition of fat; for menadione in feed, sampling point Mixer: after mixing, before extrusion
Method: Two preparations of vitamin supplement of approximately 2500 kg of feed were prepared for each vitamin K source. The vitamin K supplements were mixed in with the feed in an industrial mixer, extruded in a continuous extruder with the addition of live steam, dried and added with fat.

[5] = Release of menadione in aqueous medium; type: physicochemical; conditions: demineralized water, municipal drinking water, seawater
Method: The menadione release capacity of the adduct according to the invention and of MSB in three different types of water (demineralized water, municipal drinking water, and seawater) is evaluated.
The following table lists the milligrams/liter of menadione found in the solution with respect to the total menadione of the polymeric adduct added as a suspension equal to 1 g/l ([…] menadione on 1 g of dry adduct): […]

[6] = Thermal stability in air-circulation stove; type: physicochemical; conditions: absence of humidity
[7] = Characteristic parameters and comparative tests adduct vs MSB: solubility; type: physicochemical; conditions: at 25° C.
[8] = Thermal stability in controlled humidity (dispersed in aluminum silicate); type: physicochemical
Method: A method described in the literature is used to compare the stability of Kavist with respect to MSB. According to this method, the products, as accurately dispersed in aluminum silicate (K.F. humidity around 11%) at the level of 1.5% by weight, are kept at 55° C. for 3 days in order to evaluate their menadione content before and after the treatment. The menadione titers of the adduct according to the invention and the percentage of menadione left unchanged before and after the treatment are listed hereafter.

Row | SMILES | Menadione concentration mg/l saturated solution [1] | pH at which isomerization into poorly effective product becomes complete [2] | percentage of menadione left unchanged ([3]; 1 atm, 25° C.) | percentage of menadione left unchanged ([3]; 1 atm, 120° C.) | percentage of menadione left unchanged ([3]; 25 atm, 25° C.) | percentage of menadione left unchanged ([3]; 25 atm, 120° C.) | percentage of menadione left unchanged ([3]; 5000 atm, 25° C.) | percentage of menadione left unchanged ([3]; 5000 atm, 120° C.) | menadione in feed, sampling point End point ([4]; 1st preparation) | menadione in feed, sampling point Mixer ([4]; 1st preparation) | menadione in feed, sampling point End point ([4]; 2nd preparation) | menadione in feed, sampling point Mixer ([4]; 2nd preparation) | menadione release in water (in words) [5] | Men found/initial Men ([6]; 120° for 24 hours) | Color ([6]; after 120° for 24 hours) | water solubility [7] | Final menadione/initial menadione ([8]; 55° C. for 3 days in aluminum silicate (humidity around 11%)) | Final menadione content ([8]; after 55° C. for 3 days in aluminum silicate (humidity around 11%)) | Initial menadione content ([8]; before treatment, dispersed in aluminum silicate (humidity around 11%) at 1.5% by weight)
1 | CC1(S(=O)(=O)[O-])CC(=O)c2ccccc2C1=O.[Na+] (centres unmarked) [MSB, menadione sodium bisulfite] | Higher than 20 × 10^4 mg mg/l | approximately 8.5 | 100% | 20% | 100% | 15% | 80% | 10% | 21.0 mg/kg | 90.9 mg/kg | 16.1 mg/kg | 87.6 mg/kg | substantially instantaneous release | 0% | Purple | 50 g/100 ml at 25 °C | 15.5% | 0.24% | 1.52%
2 | CC1(S(=O)(=O)O)CC(=O)c2ccccc2C1=O.NC(=O)c1cccnc1 (centres unmarked) [MNB, menadione nicotinamide bisulfite] | – | – | – | – | – | – | – | – | 22.7 mg/kg | 86.1 mg/kg | 18.1 mg/kg | 86.3 mg/kg | – | – | – | – | – | – | –
